This is an account of results in paper PMC9448382, “Fluorosulfate-containing pyrazole heterocycles as selective BuChE inhibitors: structure-activity relationship and biological evaluation for the treatment of Alzheimer’s disease” (Journal of Enzyme Inhibition and Medicinal Chemistry, 2022).

A short description of series [1]: in vitro. The note with it: PAMPA; for Papp: pH 7.4. The text has this:
Based on prior work[40]^,[41], a parallel artificial membrane permeation assay (PAMPA) for the blood-brain barrier (BBB) was used to determine the ability of the test chemical to penetrate into the brain. Six commercial medicines were purchased from Aladdin Reagents to validate the methodology. Energy Chemical provided the DMSO and dodecane. Avanti Polar Lipids provided the porcine brain lipid (PBL). Millipore provided the donor 96-well filter microplate with a PVDF membrane (pore size […]) and the acceptor indented 96-well microplate. Corning Inc. provided the 96-well UV plate (COSTAR). DMSO was used to dissolve commercial medications and test compounds at a concentration of 20 mg/mL. They were then diluted 200 times in a solution of PBS (pH 7.4 ± 0.1)/EtOH (70/30, v/v) to achieve a final concentration of 100 µg/mL. The donor microplate's fifilter membrane was coated with 4 µL of PBL in dodecane (20 mg/mL). The donor wells were then filled with 200 µL of diluted chemical solution and 300 µL of PBS/EtOH (70/30, v/v). To make the membrane contact with buffer solution, the donor fifilter plate was carefully positioned on top of the acceptor plate to form a “sandwich” assembly. At 25 °C, the sandwich was left undisturbed. The donor plate was carefully removed after 18 h of incubation, and the concentrations of test chemicals in the donor and acceptor wells were quantified using a UV plate spectroscopic reader (PerkinElmer VICTOR Nivo, Finland). Each sample was analysed at three wavelengths, in at least three independent experiments, in four wells.
Pe, permeability, refers to the ability of compounds to permeate the membranes through passive diffusion in the blood-brain barrier penetration assays.
On the technique in general: The PAMPA barrier holds no transporters, so it reflects passive diffusion.

Series [2] has as its target T1, AChE from electric eel (Electrophorus electricus, UniProt O42275).
T1 construct: AChE from electric eel (C3389-500UN; Sigma); purchased Sigma C3389-500UN
Description: EeAChE inhibition assay (Ellman's method). In kind it is biochemical. The note with it: for inhibition at 20 µM: read-out: AChE % inhibition at 20 µM, 20 µM, na = no inhibitory activity at 20 µM; for IC50: mean ± SEM; for AChE % inhibition at 20 µM: na = no inhibitory activity at 20 µM. How it is done: (§1) According to Ellman's method, assays were carried out on AChE from electric eel (C3389-500UN; Sigma) and BuChE from horse serum (C4290-1KU; Sigma). On a final volume of 500 μL, the experiment was carried out in 48-well plates. EeAChE or eqBuChE, 0.036 U/mL, and 0.1 M pH 8 phosphate buffer were added to each well. At 37 °C, they were pre-incubated for 20 min at various chemical concentrations. […] Along with the enzymatic breakdown of ACh or BuCh, the DTNB creates the yellow anion 5-thio-2-nitrobenzoic acid. In a Biotek Synergy HTX Multi-Mode reader, changes in absorbance were detected at 410 nm. Inhibition curves were used to calculate the IC50 values (log inhibitor concentration vs percent of inhibition). The same conditions were used in a control experiment without the inhibitor, and the blank comprised buffer, DMSO, DTNB, and substrate.
(§2) The IC50 values were calculated by SPSS 17.0.
Background: Ellman's reagent forms a yellow product with free thiols.

For series [3], the target named is T2, BuChE from horse serum (Equus caballus, UniProt P81908).
T2 construct: BuChE from horse serum (C4290-1KU; Sigma); purchased Sigma C4290-1KU; host or cells: horse serum
Description: biochemical. In kind it is biochemical. The note with it: for inhibition at 20 µM: read-out: BuChE % inhibition at 20 µM. Here is the method:
as §1, §2

Series [4] concerns male ICR mice. The note with it: Aβ1–42 10 µg icv, K3 10 mg/kg po, donepezil 15 mg/kg po, Day 3 to Day 14.
Description: The National Institutes of Health Guide for the Care and Use of Laboratory Animals was followed for all experiments. The Animal Care and Use Committee of Anhui Medical University adopted the Measures for the Care and Treatment of Laboratory Animals. In Anhui Medical University's animal centre, male ICR mice were employed (Hefei). […] Throughout all of the experiments, the room's ambient temperature and relative humidity (50%) remained constant. […] 8‒10 animals were used in each study group. The experimental time was from 08: 00 to 14: 00, and the mice were sacrificed by cervical dislocation shortly after the experiment ended. […] Aβ1–42 aggregation was induced by dissolving the Aβ1–42 peptide in DMSO as a stock solution of 5 mM and incubating it in saline at a final concentration of 2 mg/mL for 24 h at 37 °C.
Where [5] appears, read: BuChE from horse serum, 20 µM, na = no inhibitory activity at 20 µM.

Like-named read-outs stand apart in the source and are kept apart here.

T1 sequence (O42275 24-633): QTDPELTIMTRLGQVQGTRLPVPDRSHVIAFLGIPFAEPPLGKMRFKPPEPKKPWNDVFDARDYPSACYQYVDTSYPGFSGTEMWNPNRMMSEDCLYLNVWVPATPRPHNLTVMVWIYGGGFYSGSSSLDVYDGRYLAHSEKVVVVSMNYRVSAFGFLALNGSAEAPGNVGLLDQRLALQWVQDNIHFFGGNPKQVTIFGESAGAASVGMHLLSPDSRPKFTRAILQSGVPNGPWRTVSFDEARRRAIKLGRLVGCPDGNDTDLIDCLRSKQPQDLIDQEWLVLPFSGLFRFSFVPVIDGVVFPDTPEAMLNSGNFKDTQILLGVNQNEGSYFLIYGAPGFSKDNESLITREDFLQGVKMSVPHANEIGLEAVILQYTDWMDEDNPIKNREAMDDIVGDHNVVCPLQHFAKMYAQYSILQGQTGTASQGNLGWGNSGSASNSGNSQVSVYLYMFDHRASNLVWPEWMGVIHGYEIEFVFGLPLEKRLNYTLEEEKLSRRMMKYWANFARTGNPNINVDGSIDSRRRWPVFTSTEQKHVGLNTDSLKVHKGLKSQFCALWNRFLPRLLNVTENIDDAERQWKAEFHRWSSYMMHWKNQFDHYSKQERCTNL
T2 sequence (P81908 whole entry): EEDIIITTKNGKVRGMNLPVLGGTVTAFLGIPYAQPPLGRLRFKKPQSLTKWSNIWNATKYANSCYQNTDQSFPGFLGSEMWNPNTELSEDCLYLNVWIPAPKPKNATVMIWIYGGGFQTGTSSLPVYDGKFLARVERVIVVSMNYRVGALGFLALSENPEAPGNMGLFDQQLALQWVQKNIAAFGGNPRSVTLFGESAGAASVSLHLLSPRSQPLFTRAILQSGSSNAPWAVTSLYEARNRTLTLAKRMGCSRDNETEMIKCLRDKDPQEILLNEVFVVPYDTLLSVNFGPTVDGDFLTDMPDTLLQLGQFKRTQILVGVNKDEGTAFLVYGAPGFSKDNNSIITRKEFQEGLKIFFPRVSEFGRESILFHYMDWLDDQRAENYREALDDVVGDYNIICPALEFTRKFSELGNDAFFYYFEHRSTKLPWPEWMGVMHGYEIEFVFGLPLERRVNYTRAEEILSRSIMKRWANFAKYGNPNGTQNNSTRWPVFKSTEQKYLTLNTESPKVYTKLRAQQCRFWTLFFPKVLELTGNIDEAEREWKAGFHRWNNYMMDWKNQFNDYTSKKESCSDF

For `Clc1cccc(Cl)c1N=C1NCCN1` [Clonidine], in series [1], the BBB penetration result was “CNS+” and the Papp is 8.3 ×10⁻⁶ cm/s.
Take `O=S(=O)(F)Oc1cc(-c2ccccc2)nn1-c1ccccc1` [Compound K1]: the inhibition at 20 µM in series [2] is 33.6 ± 1.6%. In addition, the IC50 in series [3] was determined as 2.28 ± 0.64 µM.
With `O=S(=O)(F)Oc1cc(-c2ccccc2)nn1-c1ccc(F)cc1` [Compound K2], in series [2], the inhibition at 20 µM is 27.5 ± 2.7%. Besides, the half-maximal inhibitory concentration (IC50) in series [3] turned out to be 1.73 ± 0.62 µM.
The matching figures for `Cc1ccc(-n2nc(-c3ccccc3)cc2OS(=O)(=O)F)cc1` [Compound K4]: 25.9 ± 0.9% and 2.35 ± 1.02 µM.
In the case of `Cc1ccc(-n2nc(-c3ccccc3)cc2OS(=O)(=O)F)cc1C` [Compound K5], the inhibition at 20 µM in series [2] worked out at 24.4 ± 2.1%. In addition, the concentration for half-maximal inhibition (IC50) in series [3] is 2.23 ± 0.31 µM.
Regarding `COc1ccc(-n2nc(-c3ccccc3)cc2OS(=O)(=O)F)cc1` [Compound K6], the values for the inhibition at 20 µM in series [2] and in series [3] were 25.7 ± 1.5% and 47.9 ± 1.9%, respectively.
As for `O=S(=O)(F)Oc1cc(-c2ccccc2)nn1-c1ccccn1` [Compound K7], the IC50 came to 19.39 ± 0.01 µM in series [2] and 9.89 ± 0.87 µM in series [3].
For the molecule `O=S(=O)(F)Oc1cc(-c2ccccc2)nn1C1CCCCC1` [Compound K8], the inhibition at 20 µM in series [2] worked out at 25.1 ± 1.2%. The IC50 in series [3] was found to be 5.84 ± 0.87 µM.
As to `CC(C)(C)n1nc(-c2ccccc2)cc1OS(=O)(=O)F` [Compound K9], in series [2], the “AChE % inhibition at 20 µM” value is 10.1 ± 0.4%. For the same molecule, in series [3] (setting [5]), the “BuChE % inhibition at 20 µM” value turned out to be 30.9 ± 1.5%.
`O=S(=O)(F)Oc1cc(-c2ccccc2)n[nH]1` [Compound K10]: the inhibition at 20 µM in series [2] was 32 ± 1.2%. In addition, in series [3], the half-maximal inhibitory concentration (IC50) amounted to 6.92 ± 1.41 µM.
For the molecule `Cc1nn(-c2ccccc2)c(OS(=O)(=O)F)c1C` [Compound K11], in series [2], the “AChE % inhibition at 20 µM” value is 7.2 ± 1.0%. Moreover, the “BuChE % inhibition at 20 µM” value in series [3] (setting [5]) is reported as 45.2 ± 1.8%.
For `Cc1nn(-c2ccccn2)c(OS(=O)(=O)F)c1C` [Compound K12], the “AChE % inhibition at 20 µM” value in series [2] is 42.8 ± 0.8%. Further, the “BuChE % inhibition at 20 µM” value in series [3] (setting [5]) is 20.7 ± 1.7%.
On to `Cc1cc(OS(=O)(=O)F)n(-c2ccccc2)n1` [Compound K13], for which, in series [2], the inhibition at 20 µM amounted to 37.5 ± 1.4%. The half-maximal inhibitory concentration (IC50) in series [3] worked out at 9.16 ± 0.53 µM.
On to `Cc1cc(OS(=O)(=O)F)n(-c2ccc(F)cc2)n1` [Compound K14], for which the inhibition at 20 µM in series [2] was 48.2 ± 1%. In addition, the IC50 in series [3] came to 5.5 ± 0.09 µM.
On to `Cc1cc(OS(=O)(=O)F)n(-c2ccc(Cl)cc2)n1` [Compound K15], for which the inhibition at 20 µM in series [2] was 45.2 ± 1.3%. Besides, in series [3], the IC50 amounted to 5.26 ± 0.39 µM.
With `Cc1cc(OS(=O)(=O)F)n(-c2ccc(Br)cc2)n1` [Compound K16], the inhibition at 20 µM in series [2] was 37.2 ± 0.7%. The IC50 in series [3] worked out at 7.64 ± 0.41 µM.
For the molecule `Cc1cccc(-n2nc(C)cc2OS(=O)(=O)F)c1` [Compound K17], the inhibition at 20 µM in series [2] was found to be 33.4 ± 1.3%. The IC50 in series [3] is 19.2 ± 0.69 µM.
With `Cc1cc(OS(=O)(=O)F)n(-c2ccc(C)c(C)c2)n1` [Compound K18], the inhibition at 20 µM in series [2] was found to be 8.1 ± 0.5%. Besides, in series [3], the IC50 is 3.31 ± 0.7 µM.
For `Cc1cc(OS(=O)(=O)F)n(C(C)(C)C)n1` [Compound K19], the “BuChE % inhibition at 20 µM” value in series [3] (setting [5]) was “no activity”.
With `CC(C)c1cc(OS(=O)(=O)F)n(-c2ccccc2)n1` [Compound K20], the inhibition at 20 µM in series [2] worked out at 41.6 ± 0.7%. Further, in series [3], the half-inhibitory concentration (IC50) stood at 11.25 ± 0.11 µM.
For `CC(C)c1cc(OS(=O)(=O)F)n(-c2ccc(F)cc2)n1` [Compound K21], the IC50 in series [2] amounted to 7.79 ± 0.07 µM; in series [3], 6.9 ± 0.42 µM.
In the same order, the values of `Cc1ccc(-n2nc(C(C)C)cc2OS(=O)(=O)F)cc1` [Compound K22] are 2.6 ± 0.27 µM and 18 ± 0.34 µM.
Turning to `Cc1ccc(-n2nc(C(C)C)cc2OS(=O)(=O)F)cc1C` [Compound K23], the inhibition at 20 µM in series [2] stood at 21.4 ± 1.1%. For the same molecule, the IC50 in series [3] is 3.98 ± 0.09 µM.
Consider `CCCc1cc(OS(=O)(=O)F)n(-c2ccc(Cl)cc2)n1` [Compound K24], for which, in series [2], the inhibition at 20 µM is 41.8 ± 0.2%. Further, the concentration for half-maximal inhibition (IC50) in series [3] stood at 4.59 ± 0.06 µM.
The matching figures for `CCCc1cc(OS(=O)(=O)F)n(-c2ccc(OC)cc2)n1` [Compound K25]: 10.3 ± 0.6% and 3.47 ± 0.04 µM.
On to `O=S(=O)(F)Oc1cc(C2CC2)nn1-c1ccccc1` [Compound K26], for which the IC50 in series [2] was found to be 4.82 ± 0.07 µM; in series [3] it was 14.4 ± 1.08 µM.
Consider `O=C1CC(c2ccccc2)=NN1c1ccccc1` [Compound M1], for which, in series [2], the inhibition at 20 µM came to 8.8 ± 2.6%.
`O=C1CC(c2ccccc2)=NN1c1ccc(F)cc1` [Compound M2]: the inhibition at 20 µM in series [2] was determined as 37 ± 3.3%; in series [3] (setting [5]), 27.7 ± 11.7%.
In the same order, the values of `O=C1CC(c2ccccc2)=NN1c1ccc(Cl)cc1` [Compound M3] are 26.9 ± 1% and 25.4 ± 5.4%.
On to `Cc1ccc(N2N=C(c3ccccc3)CC2=O)cc1C` [Compound M4], for which the figures for the inhibition at 20 µM in series [2] and in series [3] (setting [5]) were 10.7 ± 1.9% and 44.1 ± 13.8%, respectively.
On to `COc1cc2c(cc1OC)C(=O)C(CC1CCN(Cc3ccccc3)CC1)C2` (stereo not shown) [Donepezil, reference compound], for which the “effect on Aβ1–42-induced cognitive dysfunction (MWM)” value in series [4] is “significantly improved”.
Molecule `CN1C(C(=O)Nc2ccccn2)=C(O)c2ccccc2S1(=O)=O` [Piroxicam] had an apparent permeability (Papp) in series [1] of 2.23 ×10⁻⁶ cm/s.
Turning to `CC(=O)[C@H]1CC[C@H]2[C@@H]3CCC4=CC(=O)CC[C@]4(C)[C@H]3CC[C@]12C` [Progesterone], the apparent permeability coefficient (Papp) in series [1] came out at 8.1 ×10⁻⁶ cm/s.

As a reminder, the Papp is the rate of passage across a membrane or cell layer, normalised by area and donor concentration. Read a low Papp as slow passage. The inhibition is the percentage by which the read-out fell short of the control. For orientation: IC50 means the concentration at which inhibition is half-maximal.
